# Measured values from US10472352B2, “Rac inhibitors” (Geneyus LLC, priority 2017, dated 2019).
# What was measured:
# [1] = system: androgen receptor splice variant (ARV7) in LNCaP cells; assay: LNCaP ARE Luciferase Assay, ARV7 cells; assay type: cell-based; details: LNCaP cells overexpressing ARV7, 10 nM DHT, 4 hours; 5 or 10 uM 0032661
# Experimental: (§1) LNCaP prostate cancer cells as well as LNCaP cells that overexpress the oncogenic androgen receptor splice variant (designated ARV7) were engineered to express an Androgen Receptor (AR) luciferase reporter (SABiosciences). […] After 4 hours, cell lysate was harvested. 50 μg protein lysates were used in a luciferase assay.
# [2] = system: estrogen receptor response genes Cyclin D1 and pS2 in MCF7 breast cancer cells; assay: Inhibition of Estrogen Receptor Target Gene Protein Expression (immunoblot); assay type: cell-based; details: MCF7, 10 nM E2, 18 hours
# Experimental: After 18 hours, protein was harvested. SDS-PAGE followed by immunoblotting of samples was performed using standard techniques. Protein lysates were immunoblotted for Estrogen Receptor (ER), Cyclin D1, pS2, and Actin.
# [3] = system: Androgen Receptor (AR) luciferase reporter in LNCaP prostate cancer cells; assay: Inhibition of Androgen Receptor Luciferase Expression; assay type: cell-based; details: 10 nM DHT, 4 hours, 1 uM bicalutamide, 1 uM enzalutamide, 5 or 10 uM 0032661
# Experimental: After 4 hours, cell lysate was harvested. 50 μg protein lysates were used in a luciferase assay. The data, shown in FIG. 12, is expressed as relative luciferase units (RLU).
# MCF7 breast cancer cells = assay: Tumor Burden, MCF7 tumors in mice; assay type: in vivo, Nod/Scid-gamma null immunocomprimised mice
# Experimental: MCF7 breast cancer cells grown were innoculated into Nod/Scid-gamma null immunocomprimised mice. The resulting tumors were allowed to reach approximately 100 mm^3 in size and then mice were randomized into vehicle, Faslodex®, 0032661, or Faslodex® plus 0032661 treatment groups. Faslodex® treated mice were dosed with 500 ug Faslodex® once a week via intramuscular injection. 0032661 treated mice were dosed with 35 mg/kg 0032661 five days a week via intraparatoneal injection. Tumors were measured by calipers twice a week.
# [4] = system: PSA in LNCaP prostate cancer cells; assay: Inhibition of Increased Protein Levels of PSA (immunoblot); assay type: cell-based; details: 10 nM DHT, 18 hours, 5 uM enzalutamide, 10, 15 or 20 uM 0032661
# Experimental: After 18 hours protein was harvested. SDS-PAGE followed by immunoblotting of samples was performed using standard techniques. Protein lysates were immunoblotted for the Androgen Receptor (AR), PSA, and Actin.
# Rac1 protein = molecular target: T1, Rac1 protein (Homo sapiens, UniProt P63000); assay: Fluorescence Polarization Assay (Rac1 FP); assay type: binding; details: 125 nM his-tagged Rac1, 12.5 nM Bodipy-TR GTPγS, 30 minutes at 37° C.
# T1 construct: purchased Cytoskeleton Inc. RC01
# Procedure, shortened: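 His-tagged recombinant Rac1 (125 nM final) plus 12.5 nM Bodipy-TR GTPγS incubated with serially diluted compound for 30 min at 37 °C. Buffer: 20 mM Tris pH 7.5, 50 mM NaCl, 1 mM MgCl, 1 mM EDTA. Fluorescence polarization read at 590/625 nm excitation/emission.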
# [5] = system: Androgen Receptor (AR) luciferase reporter in LNCaP prostate cancer cells; assay: LNCaP ARE Luciferase Assay; assay type: cell-based; details: 10 nM DHT, 4 hours, 1 uM bicalutamide, 1 uM enzalutamide, 5 or 10 uM 0032661
# Experimental: as §1
compound,measurement,setting,value
"FC(F)(F)c1ccc2c(SCCCCCCn3cnc(CN4CCOCC4)c3)ccnc2c1 [Compound 0032661, 4-[[1-[6-[[7-(trifluoromethyl)-4-quinolyl]sulfanyl]hexyl]imidazol-4-yl]methyl]morpholine]",luciferase expression of the ARV7 splice variant,[1],inhibited luciferase expression of the ARV7 splice variant
same,"estrogen receptor target gene protein expression, combination",[2]; 1 uM fulv plus 5 uM 0032661,reduces estrogen receptor target gene protein expression more than either single treatment alone
same,"protein levels of estrogen receptor target genes (Cyclin D1, pS2)","[2]; 1 uM fulvestrant, 5 or 10 uM 0032661",inhibit the increase in protein levels of estrogen receptor target genes
same,androgen receptor luciferase expression (RLU),[3],inhibit the androgen receptor luciferase expression
same,"tumor burden, combination",MCF7 breast cancer cells; 500 ug Faslodex once a week intramuscular plus 35 mg/kg 0032661 five days a week,reduces tumor burden more than either single treatment alone
same,anti-tumoral effect (tumor size by calipers),"MCF7 breast cancer cells; 35 mg/kg five days a week, intraperitoneal",strong anti-tumoral effects
same,increase in protein levels of PSA,[4],inhibit the increase in protein levels of PSA
same,IC50,Rac1 protein,3.25 µM
same,androgen receptor luciferase expression (fold activation),[5],inhibit the androgen receptor luciferase expression
